Test results published in patent US9789096B2, “Methods and compositions for selective and targeted cancer therapy” (Board of Regents of the University of Texas System, priority 2013, dated 2017).

Assays:
SCD1 [1] = target: T1, SCD1 (Mus musculus, UniProt P13516); assay: Tritium release assay of SCD1 activity, mouse liver; type: biochemical; conditions: liver expresses CYP4F11
T1 construct: tissue derived from mouse liver and preputial gland was independently exposed; from tissue; host or cells: mouse liver
T1 sequence (P13516 whole entry): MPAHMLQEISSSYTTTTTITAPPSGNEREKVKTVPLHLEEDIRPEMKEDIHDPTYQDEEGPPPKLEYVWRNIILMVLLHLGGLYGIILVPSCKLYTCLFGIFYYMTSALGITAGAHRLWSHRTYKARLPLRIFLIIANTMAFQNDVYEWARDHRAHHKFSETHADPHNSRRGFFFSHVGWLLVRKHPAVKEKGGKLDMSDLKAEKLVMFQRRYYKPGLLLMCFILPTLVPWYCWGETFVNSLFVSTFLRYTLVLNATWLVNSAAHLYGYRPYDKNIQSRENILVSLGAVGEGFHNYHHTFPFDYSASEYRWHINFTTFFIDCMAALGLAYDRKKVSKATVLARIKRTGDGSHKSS
Description: FIGS. 10A-10F. Sensitive cells express high levels of CYP4 family members. FIG. 10A. relative expression levels of mRNA for a panel of cytochrome P450 enzymes from the cancer cell line encyclopedia (CCLE, http://www.broadinstitute.org/ccle) showing CYP4F11 in particular is highly expressed in 4 NSCLC lines that are sensitive to SCD1 inhibition. FIG. 10B. Western blot showing that CYP4F11 protein is expressed in all sensitive cell lines but not in the majority of insensitive cell lines. FIG. 10C. […] FIG. 10D. Cells were incubated with either a methoxy-containing oxalamide, which represents the pro-drug form, or the hydroxy containing oxalamide, which represents the active form of the drug. […] FIG. 10E. 293t cells were transfected with mammalian expression plasmids containing SCD1 or CYP4F11 as indicated. Cells were treated with either SW208108 or its demethylated congener, SW211666, and conjugated with a fluorescent dye as described in FIG. 7. Cells containing CYP4F11 form covalent adducts with both the pro-drug (methoxy) and drug form (demethylated, i.e. OH). […] FIG. 10F. Shown are the results of a tritium release assay in which tritiated water is produced from tritiated stearoyl CoA by the action of SCD1. […] By contrast, SW211666 but not SW208108 inhibits SCD1 in mouse preputial gland, which lacks CYP4F11 (bottom). […]

SCD1 [2] = target: T2, SCD1 (Homo sapiens, UniProt O00767); assay: Cross-linking of SW208108 in 12 NSCLC cell lines; type: cell-based
T2 sequence (O00767 1-359): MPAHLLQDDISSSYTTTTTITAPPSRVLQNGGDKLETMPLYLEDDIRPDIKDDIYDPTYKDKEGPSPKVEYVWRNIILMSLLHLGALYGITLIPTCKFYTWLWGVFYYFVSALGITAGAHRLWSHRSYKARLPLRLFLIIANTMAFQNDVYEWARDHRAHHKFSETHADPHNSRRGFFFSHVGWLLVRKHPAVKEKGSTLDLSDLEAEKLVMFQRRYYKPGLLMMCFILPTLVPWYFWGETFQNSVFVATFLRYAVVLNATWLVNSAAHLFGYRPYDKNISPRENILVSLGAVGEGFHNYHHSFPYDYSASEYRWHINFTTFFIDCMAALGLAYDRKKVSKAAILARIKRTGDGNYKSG
Protocol: FIGS. 9A-9D. Selective toxins selectively cross-link to SCD1 in sensitive cells and are selectively metabolized in sensitive cells. FIG. 9A. 12 NSCLC cell lines were incubated with SW208108 and processed as described in FIG. 7. […] FIG. 9B. […] FIG. 9C. […] Demethylation is the anticipated mode of metabolism. FIG. 9D. A representative benzothiazole is demethylated by sensitive cell lines. […] Values in FIGS. 9C and 9D were obtained by tandem HPLC/MS/MS.
In this context, 12 different NSCLC cell lines were treated with SW208108, lysed and clicked to a dye as previously described. […] To understand how SW208108 could selectively cross-link to SCD1 within some cell lines that expressed the enzyme but not other cell lines that expressed the same enzyme, we investigated the stability of a representative oxalamide in the presence of a sensitive and insensitive cell line. […] Similarly, a representative benzothiazole was metabolized by H2122 cells through, at least in part, the loss of the O-methyl group (FIG. 9D).

H2122 clones = assay: Toxicity to H2122 clones with loss of HMOX2; type: cell-based, human
Protocol: FIG. 7O. H2122 cells were engineered to have homozygous or heterozygous loss of HMOX2. hCas9 and guide RNA's targeting HMOX2 were co-expressed in H2122 cells and then cells were individually cloned. Individual clones were raised and analyzed for HMOX2 expression.
FIG. 7P. HMOX2 loss has no impact on the sensitivity of cells to SW208108. A dose response curve assaying the toxicity of SW208108 to H2122 clones identified in FIG. 7O was determined. There is no correlation between HMOX2 expression and SW208108 potency.
However, when HO2 was knocked out from H2122 cells using Crisper technology (FIG. 7O), no toxicity was observed, and SW208108 and related compounds retained toxicity towards H2122 cells (FIG. 7P). We conclude that HO2 is not required for cell survival or for the cytotoxicity of the selective toxins.

SCD1 [3] = target: T2, SCD1; assay: Immunoprecipitation of SW208108-bound protein with anti-SCD1; type: binding; design: The fluorescent bands confirm that p30 and p37 represent isoforms of SCD1; endogenous in cells; host or cells: H2122 cells
Protocol: FIG. 7L. Antibodies against SCD1 (Pierce) immunoprecipitate SW208108-bound protein. Samples were prepared as in FIG. 7A, and immunoprecipitated with either anti-SCD1 or IgG. The fluorescent bands confirm that p30 and p37 represent isoforms of SCD1.
SCD1 is the functional target of the oxalamides, benzothiazoles, chromones, and related derivatives. Covalent binding of SW208108 to SCD1 was confirmed by incubating cells in the presence of SW208108, lysing them, immunoprecipitating with antibodies to SCD1, and then clicking drug-bound proteins to a dye.

## C#CCOc1ccc(C(=O)c2ccc(NC(=O)C(=O)NCCc3ccc(OC)cc3)cc2)cc1 [SW208108]
SCD1 [1]
  inhibition of SCD1 activity in mouse liver tissue: only inhibited SCD1 activity in the liver
SCD1 [2]
  cross linked SCD1 bands in 12 NSCLC cell lines: Prominent cross linked bands
H2122 clones
  impact of HMOX2 loss on sensitivity of H2122 clones: no impact
SCD1 [3]
  covalent binding to SCD1 (immunoprecipitation): confirmed
